Results reported in patent US10399968B2, “Hydroxyalkyl thiadiazole derivatives” (Daiichi Sankyo Company, Limited, priority 2015, dated 2019).
Values after ≈ are worked out from the molar mass of the structure shown. Like-named read-outs stand apart in the source and are kept apart here.

Legend:
[1] = system: Clostridium difficile ATCC 43255; experiment: Susceptibility of Clostridium difficile, agar dilution MIC; format: cell-based; conditions: Clostridioides difficile, ATCC43255, anaerobic
Experimental: The antibacterial activity of the compounds of the present invention against Clostridium difficile clinical isolates was tested by the agar dilution method. The assay was carried out according to the CLSI guidelines for managing the procedures of susceptibility tests “M11-A8, Methods for Antimicrobial Susceptibility Testing of Anaerobic Bacteria; Approved Standard-Eighth Edition. CLSI document (2012)”.
The test strains were spread on supplemented Brucella agar (SBA) plates and grown at 36° C. under anaerobic condition for 42 to 48 hours. The test compound dilutions were prepared with Brucella broth and SBA plates containing dilution of test compound were prepared. As an anaerobic growth control, plates not containing the test compound were also prepared. Colonies grown on plates were suspended with Brucella broth to adjust the turbidity to 0.5 McFarland using a densitometer. Suspension (1-2 μL) of the test strains was inoculated onto each agar surface by using a bacterial suspension inoculation apparatus. After anaerobic incubation at 36° C. for 42 to 48 hours, absence and presence of growth of each strain were examined with unaided eye. The MIC was determined at which a marked reduction occurs in the appearance of growth on the test plate as compared to that of growth on the anaerobic control plates.

P. acnes IHMA 775486 = experiment: Susceptibility of P. acnes, agar dilution MIC; format: cell-based; conditions: Cutibacterium acnes, IHMA775486, anaerobic
Experimental: (§1) The antibacterial activity of the compounds of the present invention against P. acnes clinical isolates was tested by the agar dilution method. The assay was carried out according to the CLSI guidelines document (Clinical and Laboratory Standards Institute, 2012 & 2016). The test strains were spread on supplemented Brucella agar (SBA) plates and grown for 42 to 48 hours at 36° C. under anaerobic condition. The test compound dilutions were prepared with Brucella broth and SBA plates containing dilution of test compound were prepared. As an anaerobic growth control and to check the aerobic contamination, plates not containing the test compound were also prepared. Colonies grown on plates were suspended with Brucella broth to adjust the turbidity to 0.5 McFarland using a densitometer. Suspension (1-2 μL) of the test strains was inoculated onto each agar surface by using a bacterial suspension inoculation apparatus (multipoint inoculator). After anaerobic incubation for 42 to 48 hours at 36° C., absence and presence of growth of each strain on growth control plates and test compounds plate were examined with unaided eye. The MIC was determined at which a marked reduction occurs in the appearance of growth on the test plate as compared to that of growth on the anaerobic control plates.

P. acnes ATCC 6523 = experiment: Susceptibility of P. acnes, agar dilution MIC; format: cell-based; conditions: Cutibacterium acnes, ATCC6523, anaerobic
Experimental: as §1

P. acnes IHMA 103740 = experiment: Susceptibility of P. acnes, agar dilution MIC; format: cell-based; conditions: Cutibacterium acnes, IHMA103740, anaerobic
Experimental: as §1

P. acnes ATCC 6921 = experiment: Susceptibility of P. acnes, agar dilution MIC; format: cell-based; conditions: Cutibacterium acnes, ATCC6921, anaerobic
Experimental: as §1

S. aureus ATCC 29213 = experiment: Susceptibility of bacteria, broth microdilution MIC; format: cell-based; conditions: Staphylococcus aureus, ATCC29213
Experimental: The antibacterial activity of the compounds of the present invention was tested by the broth microdilution method. The assay was carried out according to the CLSI guidelines for managing the procedures of susceptibility tests: “M7-A7 Methods for Dilution Antimicrobial Susceptibility Tests for Bacteria That Grow Aerobically; Approved Standard-Seventh Edition (2006)”. Test strains were grown on appropriate agar plates overnight. A broth containing the test compound diluted serially 2-fold and diluents were dispensed at 100 μL to each well of a 96-well microplate. As a growth control, a well with a broth not containing the test compound was also prepared. Colonies grown on the plates were suspended in saline, adjusted to 0.5 McFarland (OD625=0.08 to 0.10) using a colorimeter, and then diluted 10-fold with saline. The bacterial suspension was inoculated at 4 μL into each well of the microplate using a bacterial suspension inoculation apparatus. The inoculated microplate was incubated at 35° C. overnight (about 20 hours). The growth condition was observed by the naked eye, and the minimum concentration to inhibit bacterial proliferation was defined as a minimum inhibitory concentration (MIC). The MICs of compounds disclosed herein for E. faecium, Streptococcus pneumoniae and Haemophilus influenzae are shown in Table 2, while for S. aureus in Table 3.

[2] = molecular target: Clostridium difficile DNA gyrase (Clostridioides difficile, UniProt Q18C89); experiment: DNA supercoiling inhibition assay; format: biochemical; conditions: supercoiling of relaxed pBR322 DNA, 60 minutes at 37° C.
Experimental: DNA supercoiling assays (30 μL reaction) were performed in a buffer containing 15 mM Tris-HCl pH 7.5, 13% glycerol, 6 mM MgCl2, 0.1 mg/mL BSA, 70 mM KCl, 1 mM dithioerythritol, 400 ng of DNA substrate (relaxed pBR322 DNA) and different concentrations of test compounds and/or standards. The dilutions of test compounds and standards were prepared in 20% dimethylsulfoxide (DMSO) and added 3 μL/reaction. The reaction was started by adding 2 μL amounts of Clostridium difficile DNA gyrase into the reaction mixtures and reactions were allowed to proceed for 60 minutes at 37° C. A reaction was carried out by adding 3 μL of 20% DMSO instead of test compound as full reaction control, and another reaction was carried out by adding sterile water instead of the enzyme as no reaction control.
Reactions were stopped by the addition of 5 μL of 6×loading dye and were analyzed by electrophoresis through 1.0% agarose gels with 1×TAE running buffer. Gels were run at 60 V for 3 hours, stained with EtBr, and visualized by Gel Doc system (BioRad). Intensity of the supercoiled DNA bands was quantified, and the IC50 of Clostridium difficile DNA gyrase was calculated using Graph Pad Prism.

[3] = system: Haemophilus influenzae ATCC 49247; experiment: Susceptibility of bacteria, broth microdilution MIC; format: cell-based; conditions: ATCC49247
Experimental: (§2) The antibacterial activity of the compounds of the present invention was tested by the broth microdilution method. The assay was carried out according to the CLSI guidelines for managing the procedures of susceptibility tests: “M7-A7 Methods for Dilution Antimicrobial Susceptibility Tests for Bacteria That Grow Aerobically; Approved Standard-Seventh Edition (2006)”. Test strains were grown on appropriate agar plates overnight. A broth containing the test compound diluted serially 2-fold and diluents were dispensed at 100 μL to each well of a 96-well microplate. As a growth control, a well with a broth not containing the test compound was also prepared. Colonies grown on the plates were suspended in saline, adjusted to 0.5 McFarland (OD625=0.08 to 0.10) using a colorimeter, and then diluted 10-fold with saline. The bacterial suspension was inoculated at 4 μL into each well of the microplate using a bacterial suspension inoculation apparatus. The inoculated microplate was incubated at 35° C. overnight (about 20 hours). The growth condition was observed by the naked eye, and the minimum concentration to inhibit bacterial proliferation was defined as a minimum inhibitory concentration (MIC).

[4] = system: Streptococcus pneumoniae ATCC 49619; experiment: as above; format: cell-based; conditions: ATCC49619
Experimental: as §2

E. faecium ATCC 29212 = experiment: as above; format: cell-based; conditions: Enterococcus faecium, ATCC29212
Experimental: as §2

[5] = system: Clostridium difficile 2009155, a NAP1/027 strain; experiment: Hamster CDI model; format: in vivo; conditions: 0.3 mg/kg/day by oral route, 5 days
Experimental: The in vivo efficacy of test compounds were evaluated in a hamster CDI model caused by Clostridium difficile 2009155, a NAP1/027 strain. Syrine hamsters (6-8-weeks old) were primed with a single subcutaneous injection of clindamycin (30 mg/kg) 1-5 days prior to infection. Hamsters were infected by oral gavage with 1 ml of spore suspension ([…]) prepared in PBS. The drug was administered to the hamsters 6 hours post infection by oral or subcutaneous route at an interval of 24 hours for 5 days. The death and survival of the non-treated group and the drug-administered group were recorded once daily for 35 days.

[6] = Solubility in water (JP1 / JP2 fluids); format: physicochemical; conditions: thermodynamic from solid
Experimental: A 10 mmol/L solution of the test compound was prepared in DMSO and dispensed 100 μL of 10 mmol/L DMSO stock solutions into labeled glass tubes in duplicate, one for Japanese Pharmacopeia First Fluid (JP1) and second for Japanese Pharmacopeia Second Fluid (JP2). After evaporation of DMSO from each tube, 500 μL of JP1 and JP2 fluid were added in each tube, respectively. These tubes were sonicated for 1 minute and placed on shaker for 30 minutes with an interval of 30 seconds at every 5 minute. Tubes were placed in dark at room temperature for 1 hour and solution was filtered through membrane filter. The filtrate was diluted 2-fold and 10-fold. The resulting test solutions was analyzed and quantified against the standards using UPLC (standard preparation—10 mmol/L solution in DMSO is serially diluted with 50% aqueous acetonitrile solution to prepare 2 solutions; 100 μmol/L standard solution and 5 μmol/L standard solutions).

[7] = Japanese Pharmacopeia Second Fluid (JP2), pH 6.8, aqueous buffer, read-out: Solubility JP2
[8] = Japanese Pharmacopeia First Fluid (JP1), pH 1.2, simulated gastric fluid, read-out: Solubility JP1

Sequence of Clostridium difficile DNA gyrase (Q18C90 entry or part of it): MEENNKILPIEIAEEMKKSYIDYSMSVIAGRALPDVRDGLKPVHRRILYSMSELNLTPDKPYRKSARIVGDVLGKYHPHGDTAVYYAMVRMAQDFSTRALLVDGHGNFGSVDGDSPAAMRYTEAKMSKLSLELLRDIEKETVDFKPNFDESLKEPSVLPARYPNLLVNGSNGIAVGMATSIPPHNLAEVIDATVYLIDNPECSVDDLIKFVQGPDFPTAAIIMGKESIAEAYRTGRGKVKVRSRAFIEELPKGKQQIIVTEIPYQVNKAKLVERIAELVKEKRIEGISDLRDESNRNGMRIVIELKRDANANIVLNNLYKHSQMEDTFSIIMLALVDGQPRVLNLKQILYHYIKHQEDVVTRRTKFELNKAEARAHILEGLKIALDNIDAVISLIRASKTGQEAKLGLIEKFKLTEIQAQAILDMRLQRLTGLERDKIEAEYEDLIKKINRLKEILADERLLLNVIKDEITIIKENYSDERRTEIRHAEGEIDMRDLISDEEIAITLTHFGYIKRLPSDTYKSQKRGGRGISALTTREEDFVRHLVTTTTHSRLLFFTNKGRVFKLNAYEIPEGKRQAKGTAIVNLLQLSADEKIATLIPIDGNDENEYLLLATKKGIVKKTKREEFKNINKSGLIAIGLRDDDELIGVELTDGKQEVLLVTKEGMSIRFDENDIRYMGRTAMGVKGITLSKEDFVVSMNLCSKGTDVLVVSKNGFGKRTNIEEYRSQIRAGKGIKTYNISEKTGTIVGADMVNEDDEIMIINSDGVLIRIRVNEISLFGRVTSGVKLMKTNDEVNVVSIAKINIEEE
Sequence of Clostridium difficile DNA gyrase (Q18C89 entry or part of it): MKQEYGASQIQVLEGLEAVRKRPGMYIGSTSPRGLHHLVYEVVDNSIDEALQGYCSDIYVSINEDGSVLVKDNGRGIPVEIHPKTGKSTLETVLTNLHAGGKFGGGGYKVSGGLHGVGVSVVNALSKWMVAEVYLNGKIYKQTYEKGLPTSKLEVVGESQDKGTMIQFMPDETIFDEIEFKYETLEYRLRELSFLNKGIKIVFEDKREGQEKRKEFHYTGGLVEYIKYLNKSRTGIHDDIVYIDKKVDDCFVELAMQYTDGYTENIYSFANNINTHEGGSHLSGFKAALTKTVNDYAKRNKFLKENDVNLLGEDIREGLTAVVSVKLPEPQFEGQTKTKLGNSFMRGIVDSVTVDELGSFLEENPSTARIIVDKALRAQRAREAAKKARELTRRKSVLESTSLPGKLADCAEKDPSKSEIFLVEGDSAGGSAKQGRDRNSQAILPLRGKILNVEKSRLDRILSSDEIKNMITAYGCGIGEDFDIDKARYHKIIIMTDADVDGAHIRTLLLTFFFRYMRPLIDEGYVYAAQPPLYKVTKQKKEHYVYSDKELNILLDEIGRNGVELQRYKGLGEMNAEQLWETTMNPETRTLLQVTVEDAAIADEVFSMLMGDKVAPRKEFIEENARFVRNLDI

CCc1[nH]c(C(=O)N[C@@H]2CCN(c3nnc(C(C)CO)s3)C[C@@H]2OC)nc1Cl (stereo partly drawn) [Compound No. 6, 4-Chloro-5-ethyl-N-{(3S,4R)-1-[5-(1-hydroxypropan-2-yl)-1,3,4-thiadiazol-2-yl]-3-methoxypiperidin-4-yl}-1H-imidazole-2-carboxamide] showed an MIC [1] of 0.125 µg/mL (≈ 0.291 µM), an MIC (P. acnes IHMA 775486) of 0.25 µg/mL (≈ 0.583 µM) and an MIC (P. acnes ATCC 6523) of 0.125 µg/mL (≈ 0.291 µM). For the same compound, the MIC (P. acnes IHMA 103740) was 0.25 µg/mL (≈ 0.583 µM), the MIC (P. acnes ATCC 6921) was 0.125 µg/mL (≈ 0.291 µM) and the MIC (S. aureus ATCC 29213) was 0.5 µg/mL (≈ 1.17 µM).

CCO[C@H]1CN(c2nnc(C(C)O)s2)CC[C@H]1NC(=O)c1nc(Cl)c(CC)[nH]1 (stereo partly drawn) [Compound No. 1, 4-Chloro-N-{(3S,4R)-3-ethoxy-1-[5-(1-hydroxyethyl)-1,3,4-thiadiazol-2-yl]piperidin-4-yl}-5-ethyl-1H-imidazole-2-carboxamide] gave an MIC [1] of 0.03 µg/mL (≈ 0.0699 µM), an IC50 [2] of 8.63 nM and an MIC [3] of 2 µg/mL (≈ 4.66 µM). It also gave an MIC [4] of 0.25 µg/mL (≈ 0.583 µM), an MIC (E. faecium ATCC 29212) of 0.25 µg/mL (≈ 0.583 µM) and an MIC (S. aureus ATCC 29213) of 0.5 µg/mL (≈ 1.17 µM). The “survival on day 35” value [5] was 100%.

Compound CCO[C@H]1CN(c2nnc(C(C)(C)O)s2)CC[C@H]1NC(=O)c1nc(Cl)c(CC)[nH]1 [Compound No. 7, 4-Chloro-N-{(3S,4R)-3-ethoxy-1-[5-(2-hydroxypropan-2-yl)-1,3,4-thiadiazol-2-yl]piperidin-4-yl}-5-ethyl-1H-imidazole-2-carboxamide] has an MIC [1] of 0.125 µg/mL (≈ 0.282 µM), an MIC (S. aureus ATCC 29213) of 0.5 µg/mL (≈ 1.13 µM) and a solubility at 30 min [6, 7] of 611 µg/mL (≈ 1380 µM).

In the case of CCc1[nH]c(C(=O)N[C@@H]2CCN(c3nnc(C(O)CO)s3)C[C@@H]2OC)nc1Cl (stereo in doubt) [Compound No. 9, 4-Chloro-N-[(3S,4R)-1-{5-[(1R)-1,2-dihydroxyethyl]-1,3,4-thiadiazol-2-yl}-3-methoxypiperidin-4-yl]-5-ethyl-1H-imidazole-2-carboxamide], the MIC [1] is reported as 0.125 µg/mL (≈ 0.29 µM), the MIC (P. acnes IHMA 775486) is reported as 0.125 µg/mL (≈ 0.29 µM) and the MIC (P. acnes ATCC 6523) is reported as 0.125 µg/mL (≈ 0.29 µM). The MIC (P. acnes IHMA 103740) was 0.125 µg/mL (≈ 0.29 µM), the MIC (P. acnes ATCC 6921) was 0.125 µg/mL (≈ 0.29 µM) and the MIC (S. aureus ATCC 29213) was 4 µg/mL (≈ 9.28 µM). The solubility at 30 min [6, 8] was 862 µg/mL (≈ 2000 µM) and the solubility at 30 min [6, 7] was 220 µg/mL (≈ 511 µM).

CCc1[nH]c(C(=O)N[C@@H]2CCN(c3nnc(C(O)CO)s3)C[C@@H]2OC)nc1Cl (stereo in doubt) [Compound No. 8, 4-Chloro-N-[(3S,4R)-1-{5-[(1S)-1,2-dihydroxyethyl]-1,3,4-thiadiazol-2-yl}-3-methoxypiperidin-4-yl]-5-ethyl-1H-imidazole-2-carboxamide] gave an MIC [1] of 0.125 µg/mL (≈ 0.29 µM), an MIC (P. acnes IHMA 775486) of 0.25 µg/mL (≈ 0.58 µM) and an MIC (P. acnes ATCC 6523) of 0.25 µg/mL (≈ 0.58 µM). For the same compound, the MIC (P. acnes IHMA 103740) was 0.25 µg/mL (≈ 0.58 µM), the MIC (P. acnes ATCC 6921) was 0.25 µg/mL (≈ 0.58 µM) and the MIC (S. aureus ATCC 29213) was 4 µg/mL (≈ 9.28 µM). For the same compound, the solubility at 30 min [6, 8] was 728 µg/mL (≈ 1690 µM) and the solubility at 30 min [6, 7] was 125 µg/mL (≈ 290 µM).

For CCc1[nH]c(C(=O)N[C@@H]2CCN(c3nnc(C(C)(O)CO)s3)C[C@@H]2OC)nc1Cl (stereo in doubt) [Compound No. 11, 4-Chloro-N-[(3S,4R)-1-{5-[(2S)-1,2-dihydroxypropan-2-yl]-1,3,4-thiadiazol-2-yl}-3-methoxypiperidin-4-yl]-5-ethyl-1H-imidazole-2-carboxamide], the MIC [1] was 0.06 µg/mL (≈ 0.135 µM), the IC50 [2] was 27 nM and the MIC (S. aureus ATCC 29213) was 1 µg/mL (≈ 2.25 µM). The solubility at 30 min [6, 8] was 884 µg/mL (≈ 1990 µM), the solubility at 30 min [6, 7] was 264 µg/mL (≈ 593 µM) and the “survival on day 35” value [5] was 100%.
